US12492187B2, “Factor XI activation inhibitors” (Merck Sharp & Dohme LLC, priority 2020, dated 2025)
Structures can show the parent of a compound that is named as a salt.

Molecular target: T1, Human coagulation factor (F)XI (Homo sapiens, UniProt P03951)
T1 construct: purchased Haematologic Technologies Inc. (FXI); Enzyme Research Laboratories (FXIIa) HCXI-150 (FXI); HFXIIa (FXIIa)
Assay: Inhibition of FXIIa mediated activation of FXI (activation of human Factor XI to XIa by human Factor α-XIIa)
Format: biochemical
Conditions: human FXI pre-incubated with compound 30 min at 22° C., activation by human FXIIa 60 min, z-GPR-AFC substrate, fluorescence 405/510 nm, 4 parameter logistic fit; read-out: Inhibition of FXIIa meditated activation of FXI
Experimental: Inhibition of FXIIa Mediated Activation of FXI
Activation of Human Factor XI to XIa by Human Factor α-XIIa
Assay was performed in 50 mM HEPES, 150 mM NaCl, 5 mM CaCl2, 0.1% PEG-8000, pH 7.4 buffer in black, flat-bottom, polystyrene microplates (Corning, Cat #3573). Serial dilutions (10-point, 3.333-fold) of the test compounds delivered as 10 mM DMSO stocks were prepared in the Labcyte Echo-qualified PP 384 well microplates (Labcyte, Cat #P-05525). Human coagulation factor (F)XI (Haematologic Technologies Inc., Cat #HCXI-150, concentration 46 nM, 19.5 uL) was pre-incubated with 0.5 uL of the test compounds for 30 min at 22° C. The activation was initiated by addition of 10 uL of human coagulation factor (F)XIIa (Enzyme Research Laboratories, Cat #HFXIIa, concentration 30 nM) and reaction proceeded for 60 min at 22° C., after which it was quenched by addition of a selective inhibitor of FXIIa (Compound 54 in WO2018093695) concentration 600 uM in DMSO, 1 uL). 10 min after the quench, 29 uL of z-GPR-AFC substrate (Sigma, Cat #C0980-10MG, concentration 200 uM) was added into each well and the detection reaction proceeded for 60 min at 22° C. Fluorescence at 405/510 nm was measured in end-point mode using an Envision plate-reader (Perkin Elmer). IDBS Activity Base XE (ABase) analysis using 4 parameter logistic fit was performed to determine Minimum, Maximum, EC50, and Slope Factor for each compound.

T1 sequence (P03951 19-625): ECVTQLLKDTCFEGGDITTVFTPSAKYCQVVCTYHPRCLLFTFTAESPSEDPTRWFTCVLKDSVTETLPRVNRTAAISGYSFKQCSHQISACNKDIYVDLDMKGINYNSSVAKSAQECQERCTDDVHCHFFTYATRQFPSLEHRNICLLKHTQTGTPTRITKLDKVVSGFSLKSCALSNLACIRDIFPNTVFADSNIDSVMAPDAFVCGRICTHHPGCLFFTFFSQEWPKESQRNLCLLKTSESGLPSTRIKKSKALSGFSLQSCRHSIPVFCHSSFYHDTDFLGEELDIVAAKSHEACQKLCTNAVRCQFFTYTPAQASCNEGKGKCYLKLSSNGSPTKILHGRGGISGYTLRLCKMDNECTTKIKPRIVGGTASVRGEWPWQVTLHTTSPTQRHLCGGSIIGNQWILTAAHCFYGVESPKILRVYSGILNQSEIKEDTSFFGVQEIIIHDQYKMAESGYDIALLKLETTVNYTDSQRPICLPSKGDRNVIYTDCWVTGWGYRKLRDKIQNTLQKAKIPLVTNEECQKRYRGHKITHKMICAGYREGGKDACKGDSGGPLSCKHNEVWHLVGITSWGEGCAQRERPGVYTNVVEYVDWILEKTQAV

SMILES	EC50 [nM]
Cc1cnc(C(=O)N2CCC(C#N)(c3ccccc3)CC2)cc1C(=O)N1CCC2c3cc(F)c(F)cc3OC2C1 (centres unmarked) [Example 24, 1-[4-(6,7-difluoro-3,4,4a,9a-tetrahydro-1H-benzofuro[2,3-c]pyridine-2-carbonyl)-5-methyl-pyridin-1-ium-2-carbonyl]-4-phenyl-piperidine-4-carbonitrile; 2,2,2-trifluoroacetate]	62.2
CC(C)(C)C1CCN(C(=O)c2cc(C(=O)N3CCC(C#N)(c4ccccc4)CC3)ncc2C2CC2)CC1 [Example 15, 1-(4-(4-(tert-butyl)piperidine-1-carbonyl)-5-cyclopropylpicolinoyl)-4-phenylpiperidine-4-carbonitrile, 2,2,2-trifluoroacetate salt]	42.5
N#CC1(c2ccccc2)CCN(C(=O)c2cc(C(=O)N3CCC(N4CCC(F)(F)C4)CC3)c(C(F)(F)F)cn2)CC1 [Example 18, 1-[4-[4-(3,3-difluoropyrrolidin-1-ium-1-yl)piperidine-1-carbonyl]-5-(trifluoromethyl)pyridine-2-carbonyl]-4-phenyl-piperidine-4-carbonitrile; 2,2,2-trifluoroacetate]	40
N#CC1(c2ccccc2)CCN(C(=O)c2cc(C(=O)N3CC(c4ccc(F)cc4)C3)c(C(F)(F)F)cn2)CC1 [Example 17, 1-(4-(3-(4-fluorophenyl)azetidine-1-carbonyl)-5-(trifluoromethyl)picolinoyl)-4-phenylpiperidine-4-carbonitrile]	411
Cc1cnc(C(=O)N2CCC(C#N)(c3ccccc3)CC2)cc1C(=O)N(CCC1(O)CCCC1)C1CCC1 [Example 7, 2-(4-cyano-4-phenylpiperidine-1-carbonyl)-N-cyclobutyl-N-(2-(1-hydroxycyclopentyl)ethyl)-5-methylisonicotinamide]	43.5
Cc1cnc(C(=O)N2CCC(C#N)(c3ccccc3)CC2)cc1C(=O)N1CCC(C)(N2CCC(F)(F)C2)CC1 [Example 3, 1-(4-(4-(3,3-difluoropyrrolidin-1-yl)-4-methylpiperidine-1-carbonyl)-5-methylpicolinoyl)-4-phenylpiperidine-4-carbonitrile]	61.8
Cc1cnc(C(=O)N2CCC(C#N)(c3ccccc3)CC2)cc1C(=O)N1CCC2c3ccc(F)cc3OC2C1 (centres unmarked) [Example 20, 1-[4-(7-fluoro-3,4,4a,9a-tetrahydro-1H-benzofuro[2,3-c]pyridine-2-carbonyl)-5-methyl-pyridin-1-ium-2-carbonyl]-4-phenyl-piperidine-4-carbonitrile; 2,2,2-trifluoroacetate]	37.1
Cc1cnc(C(=O)N2CCC(C#N)(c3ccccc3)CC2)cc1C(=O)N1CC(c2ccc(F)cc2)C1 [Example 9, 1-(4-(3-(4-fluorophenyl)azetidine-1-carbonyl)-5-methylpicolinoyl)-4-phenylpiperidine-4-carbonitrile]	107
Cc1nc(C(=O)N2CCC(C#N)(c3ccccc3)CC2)cc(C(=O)N2CCC(c3ccccc3)CC2)c1C [Example 32, 1-[5,6-dimethyl-4-(4-phenylpiperidine-1-carbonyl)pyridine-2-carbonyl]-4-phenyl-piperidine-4-carbonitrile]	36.6
Cc1nc(C(=O)N2CCC(C#N)(c3ccccc3)CC2)cc(C(=O)N2CCN(C3(c4ccccc4)CC3)CC2)c1C [Example 29, 1-[5,6-dimethyl-4-[4-(1-phenylcyclopropyl)piperazine-1-carbonyl]pyridine-2-carbonyl]-4-phenyl-piperidine-4-carbonitrile]	41.1
Cc1cnc(C(=O)N2CCC(C#N)(c3ccccc3)CC2)cc1C(=O)N1CC(c2cccc(F)c2)C1 [Example 4, 1-(4-(3-(3-fluorophenyl)azetidine-1-carbonyl)-5-methylpicolinoy1)-4-phenylpiperidine-4-carbonitrile]	197
Cc1cnc(C(=O)N2CCC(C#N)(c3ccccc3)CC2)cc1C(=O)N1CCC(c2ccccc2)CC1 [Example 5, 1-(5-methyl-4-(4-phenylpiperidine-1-carbonyl)picolinoyl)-4-phenylpiperidine-4-carbonitrile]	30.4
Cc1cnc(C(=O)N2CCC(C#N)(c3ccccc3)CC2)cc1C(=O)N1CCC(CCc2ccccc2)CC1 [Example 6, 1-(5-methyl-4-(4-phenethylpiperidine-1-carbonyl)picolinoyl)-4-phenylpiperidine-4-carbonitrile]	150
Cc1cnc(C(=O)N2CCC(C#N)(c3ccccc3)CC2)cc1C(=O)N1CCC2c3ccc(Cl)cc3OC2C1 (centres unmarked) [Example 23, 1-[4-(7-chloro-3,4,4a,9a-tetrahydro-1H-benzofuro[2,3-c]pyridine-2-carbonyl)-5-methyl-pyridin-1-ium-2-carbonyl]-4-phenyl-piperidine-4-carbonitrile; 2,2,2-trifluoroacetate]	75.1
Cc1cnc(C(=O)N2CCC(C#N)(c3ccccc3)CC2)cc1C(=O)N1CCC2c3cc(F)ccc3OC2C1 (centres unmarked) [Example 14, 1-(4-(6-fluoro-1,2,3,4,4a,9a-hexahydrobenzofuro[2,3-c]pyridine-2-carbonyl)-5-methylpicolinoyl)-4-phenylpiperidine-4-carbonitrile]	45.1
Cc1cnc(C(=O)N2CCC(C#N)(c3ccccc3)CC2)cc1C(=O)N1CC2CC(C1)C2(F)c1ccccc1 (centres unmarked) [Example 12, 1-(4-(6-fluoro-6-phenyl-3-azabicyclo[3.1.1]heptane-3-carbonyl)-5-methylpicolinoyl)-4-phenylpiperidine-4-carbonitrile]	137
Cc1cnc(C(=O)N2CCC(C#N)(c3ccccc3)CC2)cc1C(=O)N1CCC2c3c(F)cc(F)cc3OC2C1 (centres unmarked) [Example 19, 1-(4-(5,7-difluoro-1,2,3,4,4a,9a-hexahydrobenzofuro[2,3-c]pyridine-2-carbonyl)-5-methylpicolinoyl)-4-phenylpiperidine-4-carbonitrile]	49.3
Cc1cnc(C(=O)N2CCC(C#N)(c3ccccc3)CC2)cc1C(=O)N1CC(c2ccccc2)C1 [Example 8, 1-(5-methyl-4-(3-phenylazetidine-1-carbonyl)picolinoyl)-4-phenylpiperidine-4-carbonitrile]	119
COc1ccc2c(c1)OC1CN(C(=O)c3cc(C(=O)N4CCC(C#N)(c5ccccc5)CC4)ncc3C)CCC21 (centres unmarked) [Example 21, 1-[4-(7-methoxy-3,4,4a,9a-tetrahydro-1H-benzofuro[2,3-c]pyridine-2-carbonyl)-5-methyl-pyridin-1-ium-2-carbonyl]-4-phenyl-piperidine-4-carbonitrile; 2,2,2-trifluoroacetate]	199
Cc1cnc(C(=O)N2CCC(C#N)(c3ccccc3)CC2)cc1C(=O)N1CCC(Cc2ccccc2)CC1 [Example 10, 1-(4-(4-benzylpiperidine-1-carbonyl)-5-methylpicolinoyl)-4-phenylpiperidine-4-carbonitrile]	74.1
N#CC1(c2ccccc2)CCN(C(=O)c2cc(C(=O)N3CCC4c5ccccc5OC4C3)c(C(F)(F)F)cn2)CC1 (centres unmarked) [Example 16, 1-(4-(1,2,3,4,4a,9a-hexahydrobenzofuro[2,3-c]pyridine-2-carbonyl)-5-(trifluoromethyl)picolinoyl)-4-phenylpiperidine-4-carbonitrile]	106
CC(C)(C)C1CCN(C(=O)c2cc(C(=O)N3CCC(C#N)(c4ccccc4)CC3)ncc2C#N)CC1 [Example 25, 4-(4-tert-butylpiperidine-1-carbonyl)-6-(4-cyano-4-phenyl-piperidine-1-carbonyl)pyridin-1-ium-3-carbonitrile; 2,2,2-trifluoroacetate]	29.4
Cc1nc(C(=O)N2CCC(C#N)(c3ccccc3)CC2)cc(C(=O)N2CCC(C(C)(C)C)CC2)c1C [Example 27, 1-[4-(4-tert-butylpiperidine-1-carbonyl)-5,6-dimethyl-pyridine-2-carbonyl] -4-phenyl-piperidine-4-carbonitrile]	25.1
Cc1cnc(C(=O)N2CCC(C#N)(c3ccccc3)CC2)cc1C(=O)N1CCN(C2CCCC2)C(=O)C1 [Example 11, 1-(4-(4-cyclopentyl-3-oxopiperazine-1-carbonyl)-5-methylpicolinoyl)-4-phenylpiperidine-4-carbonitrile]	164
Cc1cnc(C(=O)N2CCC(C#N)(c3ccccc3)CC2)cc1C(=O)N1CC[C@@H]2c3ccccc3O[C@@H]2C1 (racemic) [Example 2, 1-(4-((4aR,9aS)-1,2,3,4,4a,9a-hexahydrobenzofuro[2,3-c]pyridine-2-carbonyl)-5-methylpicolinoyl)-4-phenylpiperidine-4-carbonitrile and 1-(4-((4aS,9aR)-1,2,3,4,4a,9a-hexahydrobenzofuro[2,3-c]pyridine-2-carbonyl)-5-methylpicolinoyl)-4-phenylpiperidine-4-carbonitrile]	39.4
Cc1cnc(C(=O)N2CCC(C#N)(c3ccccc3)CC2)cc1C(=O)N1CC2CC(C1)C2c1ccccc1 (centres unmarked) [Example 13, 1-(5-methyl-4-(6-phenyl-3-azabicyclo[3.1.1]heptane-3-carbonyl)picolinoyl)-4-phenylpiperidine-4-carbonitrile]	66.7
